Data set [1] concerns the target T1, GST-hLGK1 (human liver type GK) (Homo sapiens, UniProt P35557).
T1 construct: made in house; host or cells: Escherichia coli BL21 (pGEX6P-2/hLGK1)
T1 sequence (P35557 1-464 isoform P35557-3): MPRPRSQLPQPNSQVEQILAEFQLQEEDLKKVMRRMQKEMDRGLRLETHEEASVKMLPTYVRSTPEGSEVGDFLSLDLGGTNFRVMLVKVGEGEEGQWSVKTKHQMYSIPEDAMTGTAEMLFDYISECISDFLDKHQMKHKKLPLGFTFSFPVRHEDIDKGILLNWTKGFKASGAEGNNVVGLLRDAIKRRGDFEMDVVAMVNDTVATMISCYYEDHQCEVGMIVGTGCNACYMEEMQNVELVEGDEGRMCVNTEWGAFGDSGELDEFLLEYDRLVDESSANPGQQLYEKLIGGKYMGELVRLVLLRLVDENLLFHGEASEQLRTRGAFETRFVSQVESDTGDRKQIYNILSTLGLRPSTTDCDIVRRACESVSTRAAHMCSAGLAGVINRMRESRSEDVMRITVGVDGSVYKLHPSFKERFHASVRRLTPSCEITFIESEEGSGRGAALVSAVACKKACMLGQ
Description: Determination of GK activity value (fluorescence assay). To be noted: test compound 10 μmol/L, 5 mmol/L D-glucose, reaction rate as percentage of control without compound. In kind it is biochemical. As to the method: Plasmid DNA to be used for the expression of a protein (GST-hLGK1) containing GST (Glutathione S-transferase) added to the amino terminal of human liver type GK in Escherichia coli was prepared as shown below.
BL21 strain (Stratagene) transformed with pGEX6P-2/hLGK1 obtained in Reference Example 1A was cultured with shaking at 37° C. for 14 hr in a 200 ml Erlenmeyer flask containing 50 ml of 100 μg/ml ampicillin-containing LB medium. The culture medium (25 ml) was diluted with 225 ml of 100 μg/ml ampicillin-containing LB medium, and further cultured with shaking at 37° C. for 1 hr in a 1L Erlenmeyer flask. After culture, the Erlenmeyer flask was cooled on ice, 125 μL of 100 mM isopropyl-thio-β-D-galactopyranoside (IPTG) was added (final concentration 50 μM), and cultured at 17° C. for 20 hr. The culture medium was centrifuged, and the obtained fungus was disrupted by ultrasonication. The object protein (GST-hLGK1) was purified from the supernatant using Glutathione Sepharose 4B (Amersham Biosciences. K.K.).
GK enzyme reactions were performed in 50 mmol/L HEPES pH 7.4, 200 mmol/L KCl, 5 mmol/L MgCl2, 2 mmol/L DTT, containing 50 μmol/L 2′-(or-3′)-O-(N-methylanthraniloyl)adenosine 5′-triphosphate (Mant-ATP) (Jena Bioscience GmbH), 5 mmol/L D-glucose, 5% DMSO and 6 μg/mL GST-hLGK1 obtained in Reference Example 2A in a total volume 50 μL. The reactions were performed in 384 well black plates (Nalge Nunc International K.K.). Prior to the reaction, the enzyme and test compound were incubated for 10 min at 37° C., and 25 mM D-glucose solution (10 μL) was added to start the reaction. The final concentration of the test compound is 10 μmol/L. After the incubation for 60 min at 37° C., the reaction was quenched by adding 25 μL of a quenching solution (containing 200 mM HEPES (pH 7.4), 20 mM MgCl2, 200 mM EDTA, 0.03% Triton-X 100, 0.3% Coating 3 reagent (Caliper Life Sciences, Inc.)).
Mant-ATP (substrate, 2′-(or-3′)—O—(N-methylanthraniloyl)adenosine 5′-triphosphate) and Mant-ADP (reaction resultant product) were separated from each well after the reaction by a microchip type capillary electrophoresis apparatus 250 HTS (Caliper Life Sciences, Inc.). The reaction rate [(reaction resultant product peak height)/(reaction resultant product peak height+substrate peak height)×100(%)] was calculated from the ratio of the substrate peak height and reaction resultant product peak height obtained by fluorescence detection (excitation wavelength 355 nm, measurement wavelength 460 nm) and used as the index of GK activity.
As a control group, the reaction rate was calculated in the same manner as above without the test compounds.
The percentage obtained by dividing the reaction rate of the well added with the test compound (test compound addition group) by the reaction rate of the control group was taken as the GK activity value (Emax) of the test compound.

The structures appear in SMILES notation. Structures can show the parent of a compound that is named as a salt.

Drawing on patent US20110301155A1, “INDAZOLE COMPOUNDS FOR ACTIVATING GLUCOKINASE” (priority 2007, published 2011), this text covers Emax and melting point for 15 compounds.

The compound `Clc1cccnc1-c1cc(OCCc2ccccn2)c2[nH]nc(Nc3nccs3)c2c1` [Example 85, 5-(3-chloropyridin-2-yl)-7-(2-pyridin-2-ylethoxy)-N-1,3-thiazol-2-yl-1H-indazole-3-amine] had a melting point of 185 to 187 °C. The Emax at 10 µM in data set [1] came out at 231%.

`Cn1ccc(Nc2n[nH]c3ccc(-c4ncccc4Cl)cc23)n1` [Example 63, 5-(3-chloropyridin-2-yl)-N-(1-methyl-1H-pyrazol-3-yl)-1H-indazole-3-amine] gave a melting point of 190 to 191 °C. This compound also came in with an Emax at 10 µM in data set [1] of 175%.

As to `CCCc1cc(-c2cc3ccccc3s2)c2[nH]nc(Nc3nccs3)c2c1` [Example 28, 7-(1-benzothien-2-yl)-5-propyl-N-1,3-thiazol-2-yl-1H-indazole-3-amine], the maximal effect (Emax) at 10 µM in data set [1] turned out to be 231%.

Regarding `Cn1ccc(Nc2n[nH]c3c(Oc4ccc(S(C)(=O)=O)cc4)cc(-c4ncccc4Cl)cc23)n1` [Example 105, 5-(3-chloropyridin-2-yl)-N-(1-methyl-1H-pyrazol-3-yl)-7-[4-(methylsulfonyl)phenoxy]-1H-indazole-3-amine], the Emax at 10 µM in data set [1] amounted to 140%.

`CCNC(=O)Nc1n[nH]c2ccc(-c3ncccc3Cl)cc12` [Example 101, N-[5-(3-chloropyridin-2-yl)-1H-indazol-3-yl]-N′-ethylurea]: the melting point was 178 to 180 °C. The Emax at 10 µM in data set [1] was 202%.

With `O=S(=O)(c1ccc2[nH]nc(Nc3nccs3)c2c1)N1CCCC1` [Example 20, 5-(pyrrolidin-1-ylsulfonyl)-N-1,3-thiazol-2-yl-1H-indazole-3-amine], the Emax at 10 µM in data set [1] was found to be 156%.

`Cn1ccc(Nc2n[nH]c3c(OCCc4ccccn4)cc(-c4ncccc4Cl)cc23)n1` [Example 100, 5-(3-chloropyridin-2-yl)-N-(1-methyl-1H-pyrazol-3-yl)-7-(2-pyridin-2-ylethoxy)-1H-indazole-3-amine]: the melting point lay within 89 to 91 °C. The Emax at 10 µM in data set [1] came to 200%.

`CC(C)Cc1cc(OCCc2ccsc2)c2[nH]nc(Nc3nccs3)c2c1` [Example 72, 5-isobutyl-N-1,3-thiazol-2-yl-7-[2-(3-thienyl)ethoxy]-1H-indazole-3-amine] yielded a melting point of 150 to 151 °C. Moreover, the Emax at 10 µM in data set [1] stood at 194%.

The compound `CC(C)S(=O)(=O)c1cc(OCCc2ccccn2)c2[nH]nc(Nc3nccs3)c2c1` [Example 117, 5-(isopropylsulfonyl)-7-(2-pyridin-2-ylethoxy)-N-1,3-thiazol-2-yl-1H-indazole-3-amine] registered a melting point of 190 to 191 °C. In data set [1], this compound had an Emax at 10 µM of 211%.

`CC(C)Cc1cc(OCC(=O)N(C)C)c2[nH]nc(Nc3nccs3)c2c1` [Example 73, 2-{[5-isobutyl-3-(1,3-thiazol-2-ylamino)-1H-indazole-7-yl]oxy}-N,N-dimethylacetamide] displayed a melting point of 96 to 98 °C. In data set [1], this compound came in with an Emax at 10 µM of 111%.

With `COC[C@H](C)Oc1cc(OCCc2ccccn2)c2[nH]nc(Nc3nccs3)c2c1` (as salt: hydrochloride) [Example 108, 5-[(1S)-2-methoxy-1-methylethoxy]-7-(2-pyridin-2-ylethoxy)-N-1,3-thiazol-2-yl-1H-indazole-3-amine dihydrochloride], the melting point fell in the range of 150 to 153 °C.

In turn, `CCn1nc(Nc2nccs2)c2cc(-c3ncccc3Cl)ccc21` [Example 30, 5-(3-chloropyridin-2-yl)-1-ethyl-N-1,3-thiazol-2-yl-1H-indazole-3-amine] returned an Emax at 10 µM in data set [1] of 129%.

The compound `COC[C@H](C)Oc1cc(OCCc2ccccn2)c2[nH]nc(Nc3nccs3)c2c1` [Example 108, 5-[(1S)-2-methoxy-1-methylethoxy]-7-(2-pyridin-2-ylethoxy)-N-1,3-thiazol-2-yl-1H-indazole-3-amine dihydrochloride] returned an Emax at 10 µM in data set [1] of 199%.

Consider `Clc1cccnc1-c1ccc2[nH]nc(Nc3ncc(CN4CCOCC4)s3)c2c1` [Example 34, 5-(3-chloropyridin-2-yl)-N-[5-(morpholin-4-ylmethyl)-1,3-thiazol-2-yl]-1H-indazole-3-amine], for which the melting point was 217 °C. This compound also registered an Emax at 10 µM in data set [1] of 186%.

With `Cn1ccnc1Sc1ccc2[nH]nc(Nc3nccs3)c2c1` [Example 109, 5-[(1-methyl-1H-imidazol-2-yl)thio]-N-1,3-thiazol-2-yl-1H-indazole-3-amine], the melting point is more than 250 °C. This compound had an Emax at 10 µM in data set [1] of 218%.

By Emax is commonly meant the size of the effect at its maximum, as opposed to the concentration needed. The term melting point denotes the temperature, or range, at which the solid turns liquid.
